As a reminder, the GI50 is the concentration that inhibits growth by half.

SMILES strings stand for the structures.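 Grown in 96-well plates, cells were treated for 48 hours with each compound at five concentrations. Insufficient inhibition: endpoint recorded as highest concentration tested. At the GI50, growth is halved.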 Active and inactive are the calls of the source. No stated cut-off is given here; in the data, active = GI50 up to about 1.1 µM and inactive = higher.

This note sets out measurements from ChEMBL document CHEMBL1201862, “PubChem BioAssay data set” (2004).

Test systems include EKVX; UACC-62; KM12; Hs-578T; U-251; RPMI-8226; SF-268; HCT-15; OVCAR-4; ACHN; MCF7; CAKI-1; SK-MEL-28; NCI-H460; MDA-MB-435; SK-MEL-5; NCI-H522; TK-10; RXF 393; HOP-92.
Experiment in all cases: DTP human tumour cell line panel, 48 h

On to `O=[N+]([O-])C(=C1Nc2ccccc2N1)/C(Cl)=C(/Cl)N1CCOCC1`, for which the GI50 was > 100 µM (inactive) with EKVX; 77.6 µM (inactive) in the assay with UACC-62; > 100 µM (inactive) with KM12; 34.6 µM (inactive) with Hs-578T; 61.9 µM (inactive) in the assay on U-251; 57.7 µM (inactive) in the assay on RPMI-8226. In addition, the GI50 in the assay on SF-268 is 22.6 µM (inactive); in the assay on HCT-15 it was 31.8 µM; with OVCAR-4, 25.4 µM (inactive); with ACHN, 71.8 µM (inactive); with MCF7 it was 45.8 µM (inactive); with CAKI-1, > 100 µM (inactive). Moreover, the GI50 in the assay on SK-MEL-28, with NCI-H460 and in the assay with MDA-MB-435 was > 100 µM (inactive) in each case.
`COc1cc(OC)c2c(c1-c1ccc(C)cc1)CC(C)N(Cc1ccccc1)[C@H]2C` (stereo partly specified): the GI50 in the assay with EKVX was 43.9 µM (inactive); in the assay with UACC-62 it was 39.1 µM (inactive); in the assay with KM12, 28.2 µM (inactive); in the assay with SK-MEL-5, 19.4 µM (inactive); in the assay on Hs-578T, 12.7 µM (inactive); with NCI-H522 it was 33.5 µM (inactive). In addition, the GI50 with RPMI-8226 was 13.5 µM (inactive); in the assay with SF-268 it was 31.3 µM (inactive); in the assay with HCT-15 it was 35.9 µM; in the assay with TK-10, 38.3 µM (inactive); in the assay on ACHN, 18.3 µM (inactive); in the assay on MCF7, 28.5 µM (inactive). Moreover, the GI50 with CAKI-1 is 63.8 µM (inactive); with SK-MEL-28, 38.2 µM (inactive); in the assay with NCI-H460 it was 37.7 µM (inactive); with MDA-MB-435 it was 33.3 µM (inactive).
On to `c1ccc2c(c1)sc1c3cnccc3ccc21`, for which the GI50 in the assay on EKVX is 6.71 µM (inactive); with UACC-62, 80.4 µM (inactive); with KM12, 46.6 µM (inactive); in the assay on SK-MEL-5, > 100 µM (inactive); in the assay on Hs-578T it was 29 µM (inactive); in the assay with U-251, > 100 µM (inactive). Moreover, the GI50 in the assay with NCI-H522 was > 100 µM (inactive); with RPMI-8226, 0.0697 µM (active); with SF-268 it was > 100 µM (inactive); in the assay on HCT-15 it was over 100 µM; in the assay on TK-10, 51.2 µM (inactive); in the assay with OVCAR-4 it was > 100 µM (inactive). The GI50 in the assay with ACHN is 90.4 µM (inactive); with MCF7 it was 24.1 µM (inactive); with CAKI-1 it was 43.3 µM (inactive); in the assay on SK-MEL-28, > 100 µM (inactive); with NCI-H460, 24.9 µM (inactive); in the assay on MDA-MB-435 it was > 100 µM (inactive).
In the case of `O=C(O)Cc1c[nH]c2ccc(F)cc12`, the GI50 in the assay with RXF 393, in the assay with EKVX, in the assay with UACC-62, in the assay on KM12, with SK-MEL-5 and in the assay on U-251 was > 100 µM (inactive) each time. For the same compound, the GI50 is > 100 µM (inactive) in the assay with RPMI-8226; over 100 µM in the assay with HCT-15; > 100 µM (inactive) in the assay with TK-10; > 100 µM (inactive) in the assay on OVCAR-4; > 100 µM (inactive) in the assay with ACHN; > 100 µM (inactive) with MCF7. Further, the GI50 with CAKI-1, with HOP-92, in the assay on SK-MEL-28, in the assay on NCI-H460 and in the assay on MDA-MB-435 was > 100 µM (inactive) throughout.
Consider `N#CCCNCCN(CCN(C(=O)Nc1ccccc1)c1ccccc1)C(=O)Nc1ccccc1`, for which the GI50 is 31.7 µM (inactive) in the assay on RXF 393; 67.1 µM (inactive) in the assay with EKVX; 32.2 µM (inactive) in the assay on UACC-62; 19.9 µM (inactive) with SK-MEL-5; 59.2 µM (inactive) in the assay with Hs-578T; > 100 µM (inactive) with U-251. For the same compound, the GI50 was 24.8 µM (inactive) in the assay on NCI-H522; 57 µM (inactive) in the assay with RPMI-8226; 63.5 µM (inactive) in the assay on SF-268; 41.5 µM in the assay with HCT-15; 29.5 µM (inactive) with TK-10; 47.2 µM (inactive) in the assay with ACHN. In addition, the GI50 in the assay on MCF7 was 37.8 µM (inactive); in the assay with HOP-92, 40.6 µM (inactive); in the assay with SK-MEL-28, 18.7 µM (inactive); with NCI-H460, 37.9 µM (inactive).
`COc1ccc([C@]23CCC4(OCC(C)(C)CO4)[C@H]4CON(O[C@H](O[C@@H]5CCCCC5C(C)(C)c5ccccc5)C2)[C@@H]43)cc1OC` (stereo partly specified): the GI50 was 25.4 µM (inactive) in the assay on RXF 393; 34 µM (inactive) in the assay on EKVX; 30.4 µM (inactive) in the assay with UACC-62; 29.6 µM (inactive) in the assay with KM12; 22.2 µM (inactive) in the assay on SK-MEL-5; 64 µM (inactive) with U-251. Besides, the GI50 was 27 µM (inactive) with NCI-H522; 26.9 µM (inactive) in the assay on RPMI-8226; 37.8 µM in the assay with HCT-15; 78.5 µM (inactive) in the assay on TK-10; 26.1 µM (inactive) in the assay with OVCAR-4; 30.1 µM (inactive) in the assay with MCF7. Further, the GI50 was 13.6 µM (inactive) with CAKI-1; 25.8 µM (inactive) in the assay on HOP-92; 42.6 µM (inactive) in the assay with SK-MEL-28; 79.4 µM (inactive) with NCI-H460; 25.9 µM (inactive) in the assay with MDA-MB-435.
For the compound `CC(=O)OCC1OC(n2c(C)c(C(C)=O)c(-c3ccc(Cl)cc3)c(C#N)c2=S)C(OC(C)=O)C(OC(C)=O)C1OC(C)=O` (stereo unspecified), the GI50 with RXF 393, in the assay with UACC-62, in the assay on KM12, with SK-MEL-5, in the assay with U-251 and with NCI-H522 was > 100 µM (inactive) each time. Also, the GI50 in the assay with SF-268 is > 100 µM (inactive); with HCT-15, over 100 µM; in the assay with TK-10, > 100 µM (inactive); in the assay on OVCAR-4, > 100 µM (inactive); with ACHN it was > 100 µM (inactive); with MCF7 it was > 100 µM (inactive). Further, the GI50 in the assay with HOP-92, in the assay with SK-MEL-28, with NCI-H460 and in the assay with MDA-MB-435 was > 100 µM (inactive) in each case.
Regarding `COc1ccc(/C=C/C(=O)CC(=O)/C=C/c2ccc(OC)cc2)cc1`, the GI50 was 23.8 µM (inactive) in the assay with RXF 393; 54.7 µM (inactive) in the assay on EKVX; 54.2 µM (inactive) in the assay on UACC-62; > 100 µM (inactive) with KM12; 67.6 µM (inactive) in the assay on SK-MEL-5; 36.4 µM (inactive) in the assay on Hs-578T. For the same compound, the GI50 with U-251 was 41.3 µM (inactive); in the assay on NCI-H522, 7.94 µM (inactive); in the assay with RPMI-8226, 38.1 µM (inactive); with SF-268, 46.3 µM (inactive); in the assay with HCT-15, 42.9 µM; with MCF7 it was 64.9 µM (inactive). Further, the GI50 with CAKI-1 was 62.4 µM (inactive); with SK-MEL-28, 36.4 µM (inactive); with NCI-H460 it was 33 µM (inactive); in the assay on MDA-MB-435, 38.6 µM (inactive).
As to `O=C1NC(=S)N/C1=C\c1ccc(Cl)cc1`, the GI50 in the assay with RXF 393 was > 100 µM (inactive); in the assay with EKVX, 33.6 µM (inactive); with UACC-62 it was 46.3 µM (inactive); with KM12 it was 89.7 µM (inactive); in the assay with SK-MEL-5, 41.8 µM (inactive); with Hs-578T, 50.4 µM (inactive). For the same compound, the GI50 was > 100 µM (inactive) in the assay with U-251; > 100 µM (inactive) in the assay on NCI-H522; 77.3 µM (inactive) in the assay on RPMI-8226; > 100 µM (inactive) in the assay on SF-268; over 100 µM in the assay with HCT-15; > 100 µM (inactive) with TK-10. In addition, the GI50 in the assay with OVCAR-4 is 39.2 µM (inactive); with MCF7 it was > 100 µM (inactive); in the assay with CAKI-1 it was > 100 µM (inactive); in the assay on SK-MEL-28, > 100 µM (inactive); in the assay with MDA-MB-435, > 100 µM (inactive).
Turning to `O=C1C=CC2CCC1C2` (stereo unspecified), the GI50 in the assay on EKVX is > 100 µM (inactive); in the assay on UACC-62, 19.2 µM (inactive); in the assay with KM12, 32.4 µM (inactive); with SK-MEL-5 it was 28.6 µM (inactive); in the assay on Hs-578T it was 28.6 µM (inactive); in the assay on U-251, 28.8 µM (inactive). Further, the GI50 was 17.7 µM (inactive) with NCI-H522; 34 µM (inactive) in the assay on RPMI-8226; 20.2 µM (inactive) with SF-268; 18.2 µM in the assay on HCT-15; 66.1 µM (inactive) in the assay with TK-10; 40.3 µM (inactive) in the assay with ACHN. Moreover, the GI50 with MCF7 is 31.1 µM (inactive); in the assay on CAKI-1, 27.5 µM (inactive); with SK-MEL-28, 23.5 µM (inactive); with NCI-H460, 30.6 µM (inactive); in the assay with MDA-MB-435, 17.2 µM (inactive).
Regarding `Cc1ccc(S(=O)(=O)n2c3ccc(Br)cc3c3nc4ccccc4nc32)cc1`, the GI50 in the assay on RXF 393, in the assay on UACC-62, with KM12, in the assay with SK-MEL-5, in the assay with Hs-578T and in the assay with U-251 was > 100 µM (inactive) each time. The GI50 with NCI-H522 is 0.649 µM (active); in the assay on RPMI-8226, > 100 µM (inactive); in the assay with SF-268 it was > 100 µM (inactive); in the assay on HCT-15 it was over 100 µM; in the assay on TK-10, > 100 µM (inactive); with OVCAR-4 it was 72.8 µM (inactive). Further, the GI50 in the assay on ACHN, with CAKI-1, in the assay on HOP-92, with SK-MEL-28, with NCI-H460 and with MDA-MB-435 was > 100 µM (inactive) in each case.
Regarding `O=[N+]([O-])C(Cl)C(Cl)C(Cl)=C(Cl)Cl` (stereo unspecified), the GI50 was 18.5 µM (inactive) in the assay on RXF 393; > 100 µM (inactive) with EKVX; 16.6 µM (inactive) in the assay on UACC-62; > 66.7 µM (inactive) in the assay with KM12; 15 µM (inactive) in the assay on SK-MEL-5; 25.1 µM (inactive) with Hs-578T. Besides, the GI50 in the assay with U-251 was > 83.6 µM (inactive); with NCI-H522 it was 21.4 µM (inactive); with SF-268, > 45.8 µM (inactive); in the assay with HCT-15 it was 18.7 µM; with TK-10, 19.4 µM (inactive); in the assay on OVCAR-4, 16.7 µM (inactive). Further, the GI50 in the assay on ACHN is 16.4 µM (inactive); with MCF7, 13.8 µM (inactive); in the assay with CAKI-1, 17.6 µM (inactive); in the assay with SK-MEL-28 it was 18.5 µM (inactive); in the assay with NCI-H460, 49.1 µM (inactive); in the assay with MDA-MB-435, 23.7 µM (inactive).
